Source: US20240350493A1 (Kadmon Corporation, LLC, priority 2022, published 2024)
Structures can show the parent of a compound that is named as a salt. Marks after values point to notes of the source that are not given here. Blank lines part the entries; values can stand above or below the compound they belong to.

What was measured:
ROCK2 = ROCK2 (Homo sapiens, UniProt O75116); assay: ROCK2 inhibition; format: biochemical
[1] = phase I two-part drug-drug interaction study, plasma pharmacokinetics (Example 1); format: in vivo, human
Text: The secondary objective was to provide additional information on the safety and tolerability of this dose regimen in healthy males.
This was a single center, non-randomized, DDI study in 35 (Part 1) and 38 (Part 2) healthy males. The key inclusion criterion was males aged 18 to 55 years (inclusive). […] In Part 2, co-administration with omeprazole was studied. The study design is illustrated in FIG. 1.
At least a 2-to 8-day washout occurred between each period to account for a minimum of 5 half-lives of the active moieties dosed in the preceding period.
Blood samples were collected into 6 mL K,EDTA tubes and were processed within 30 minutes of collection. The resultant plasma was then frozen within 90 minutes of collection and stored at […] until shipment to the bioanalytical laboratory.
For each comparison, PK parameters were natural log transformed and analyzed using mixed effect modeling with treatment included as a fixed effect and subject as a random effect. Adjusted geometric mean ratios (GMRs) and corresponding 90% CIs were calculated.

[2] = human, in vivo
[3] = solubility of belumosudil mesylate in solvents; format: physicochemical
patients with cGVHD = conditions: cited from earlier work
[4] = 200 mg belumosudil BID + omeprazole
[5] = 200 mg belumosudil BID + omeprazole, first dose
[6] = 200 mg belumosudil BID + omeprazole, second dose
[7] = 200 mg belumosudil BID alone, first dose
[8] = 200 mg belumosudil BID alone, second dose
[9] = 200 mg belumosudil single dose + itraconazole
[10] = 200 mg belumosudil single dose + rabeprazole
[11] = 200 mg belumosudil single dose + rifampicin
[12] = 200 mg belumosudil single dose alone
[13] = coadministration of itraconazole
[14] = coadministration of rabeprazole

Sequence of ROCK2 (O75116 whole entry): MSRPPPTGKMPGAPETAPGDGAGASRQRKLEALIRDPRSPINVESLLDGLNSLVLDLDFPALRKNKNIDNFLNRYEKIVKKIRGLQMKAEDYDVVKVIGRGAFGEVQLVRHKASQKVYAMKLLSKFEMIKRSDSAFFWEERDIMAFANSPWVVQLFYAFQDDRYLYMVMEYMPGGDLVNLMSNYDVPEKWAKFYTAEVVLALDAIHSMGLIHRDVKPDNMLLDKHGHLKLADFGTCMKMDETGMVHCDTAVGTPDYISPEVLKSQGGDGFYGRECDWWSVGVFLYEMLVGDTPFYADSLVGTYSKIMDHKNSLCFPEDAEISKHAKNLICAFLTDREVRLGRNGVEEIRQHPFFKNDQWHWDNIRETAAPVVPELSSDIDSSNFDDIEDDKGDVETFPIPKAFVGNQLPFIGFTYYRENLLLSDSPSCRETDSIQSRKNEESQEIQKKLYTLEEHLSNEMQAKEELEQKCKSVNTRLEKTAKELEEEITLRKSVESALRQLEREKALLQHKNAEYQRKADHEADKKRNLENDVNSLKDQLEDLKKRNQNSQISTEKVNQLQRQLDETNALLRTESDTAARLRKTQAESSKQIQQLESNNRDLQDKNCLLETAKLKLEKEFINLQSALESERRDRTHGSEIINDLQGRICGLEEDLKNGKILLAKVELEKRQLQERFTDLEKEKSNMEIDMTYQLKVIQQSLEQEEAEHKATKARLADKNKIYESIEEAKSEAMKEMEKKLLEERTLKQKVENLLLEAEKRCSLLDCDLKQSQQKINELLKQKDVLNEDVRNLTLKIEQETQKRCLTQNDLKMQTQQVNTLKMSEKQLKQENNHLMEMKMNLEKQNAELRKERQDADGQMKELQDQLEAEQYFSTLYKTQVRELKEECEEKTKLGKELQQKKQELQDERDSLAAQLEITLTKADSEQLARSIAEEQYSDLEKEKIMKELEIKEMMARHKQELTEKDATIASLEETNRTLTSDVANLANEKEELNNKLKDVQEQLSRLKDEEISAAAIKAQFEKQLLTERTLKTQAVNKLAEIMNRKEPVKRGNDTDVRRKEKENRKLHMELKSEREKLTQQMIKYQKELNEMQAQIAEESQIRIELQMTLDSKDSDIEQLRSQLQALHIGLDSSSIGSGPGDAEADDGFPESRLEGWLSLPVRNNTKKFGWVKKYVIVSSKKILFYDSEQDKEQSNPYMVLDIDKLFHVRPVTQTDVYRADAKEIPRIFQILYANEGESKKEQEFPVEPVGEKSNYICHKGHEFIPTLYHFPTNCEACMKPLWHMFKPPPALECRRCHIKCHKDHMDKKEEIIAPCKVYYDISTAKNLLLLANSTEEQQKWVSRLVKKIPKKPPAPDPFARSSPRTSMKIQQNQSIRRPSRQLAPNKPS

ROCK2 activity of metabolite (ROCK2): inactive
AUC0-24, geometric mean (geometric CV %) [1, 4]: 767 (115.3) ^k; ng*h/mL
AUCinf, arithmetic mean (SD) [1, 4]: 1430 (981) ^q ng*h/mL
AUCinf, geometric mean (geometric CV %) [1, 4]: 1110 (90.3) ^q; ng*h/mL
AUClast, arithmetic mean (SD) [1, 4]: 1160 (998) ^k ng*h/mL
AUClast, geometric mean (geometric CV %) [1, 4]: 783 (122.6) ^k; ng*h/mL
t1/2, arithmetic mean (SD) [1, 4]: 3.20 (2.10) ^r h
t1/2, geometric mean (geometric CV %) [1, 4]: 2.76 (55.1) ^r h
Cmax, arithmetic mean (SD) [1, 5]: 129 (133) ^l ng/mL
Cmax, geometric mean (geometric CV %) [1, 5]: 72.3 (166.8) ^l; ng/mL
Cmax, arithmetic mean (SD) [1, 6]: 172 (160) ^n ng/mL
Cmax, geometric mean (geometric CV %) [1, 6]: 115 (121.8) ^n; ng/mL
AUC0-24, geometric mean (geometric CV %) ([1]; 200 mg belumosudil BID alone): 1950 (82.3) ^k; ng*h/mL
AUCinf, arithmetic mean (SD) ([1]; 200 mg belumosudil BID alone): 2550 (2200) ^c ng*h/mL
AUCinf, geometric mean (geometric CV %) ([1]; 200 mg belumosudil BID alone): 1900 (90.4) ^c; ng*h/mL
AUClast, arithmetic mean (SD) ([1]; 200 mg belumosudil BID alone): 2690 (2090) ^k ng*h/mL
AUClast, geometric mean (geometric CV %) ([1]; 200 mg belumosudil BID alone): 2030 (91.1) ^k; ng*h/mL
t1/2, arithmetic mean (SD) ([1]; 200 mg belumosudil BID alone): 5.70 (5.24) ^c h
t1/2, geometric mean (geometric CV %) ([1]; 200 mg belumosudil BID alone): 4.32 (78.9) ^c h
Cmax, arithmetic mean (SD) [1, 7]: 343 (202) ^k ng/mL
Cmax, geometric mean (geometric CV %) [1, 7]: 282 (75.6) ^k; ng/mL
Cmax, arithmetic mean (SD) [1, 8]: 323 (207) ng/mL
Cmax, geometric mean (geometric CV %) [1, 8]: 257 (83.9); ng/mL
AUC0-24, geometric mean (geometric CV %) [1, 9]: 745 (70.7); ng*h/mL
AUCinf, arithmetic mean (SD) [1, 9]: 1050 (792) ^c ng*h/mL
AUCinf, geometric mean (geometric CV %) [1, 9]: 843 (73.7) ^c; ng*h/mL
AUClast, arithmetic mean (SD) [1, 9]: 891 (710) ng*h/mL
AUClast, geometric mean (geometric CV %) [1, 9]: 704 (75.5); ng*h/mL
Cmax, arithmetic mean (SD) [1, 9]: 257 (152) ng/mL
Cmax, geometric mean (geometric CV %) [1, 9]: 221 (60.8); ng/mL
t1/2, arithmetic mean (SD) [1, 9]: 4.00 (3.69) ^g h
t1/2, geometric mean (geometric CV %) [1, 9]: 2.89 (92.2) ^g h
AUC0-24, geometric mean (geometric CV %) [1, 10]: 110 (84.0) ^v; ng*h/mL
AUCinf, arithmetic mean (SD) [1, 10]: 175 (19.4) ^t ng*h/mL
AUCinf, geometric mean (geometric CV %) [1, 10]: 174 (11.1) ^t; ng*h/mL
AUClast, arithmetic mean (SD) [1, 10]: 108 (76.5) ^v ng*h/mL
AUClast, geometric mean (geometric CV %) [1, 10]: 85.8 (81.6) ^v; ng*h/mL
Cmax, arithmetic mean (SD) [1, 10]: 29.4 (23.8) ^c ng/mL
Cmax, geometric mean (geometric CV %) [1, 10]: 23.5 (70.7) ^c; ng/mL
t1/2, arithmetic mean (SD) [1, 10]: 3.59 (1.84) ^w h
t1/2, geometric mean (geometric CV %) [1, 10]: 3.10 (69.6) ^w h
AUC0-24, geometric mean (geometric CV %) [1, 11]: 376 (56.7) ^c; ng*h/mL
AUCinf, arithmetic mean (SD) [1, 11]: 444 (237) ^h ng*h/mL
AUCinf, geometric mean (geometric CV %) [1, 11]: 396 (50.2) ^h; ng*h/mL
AUClast, arithmetic mean (SD) [1, 11]: 407 (237) ^c ng*h/mL
AUClast, geometric mean (geometric CV %) [1, 11]: 349 (61.1) ^c; ng*h/mL
Cmax, arithmetic mean (SD) [1, 11]: 169 (85.8) ^c ng/mL
Cmax, geometric mean (geometric CV %) [1, 11]: 148 (57.3) ^c; ng/mL
t1/2, arithmetic mean (SD) [1, 11]: 1.31 (0.368) ^h
t1/2, geometric mean (geometric CV %) [1, 11]: 1.27 (26.8) ^h
AUC0-24, geometric mean (geometric CV %) [1, 12]: 1100 (63.7); ng*h/mL
AUCinf, arithmetic mean (SD) [1, 12]: 1460 (910) ^d ng*h/mL
AUCinf, geometric mean (geometric CV %) [1, 12]: 1230 (69.5) ^d; ng*h/mL
AUClast, arithmetic mean (SD) [1, 12]: 1260 (811) ng*h/mL
AUClast, geometric mean (geometric CV %) [1, 12]: 1050 (68.1); ng*h/mL
Cmax, arithmetic mean (SD) [1, 12]: 379 (182) ng/mL
Cmax, geometric mean (geometric CV %) [1, 12]: 337 (54.7); ng/mL
t1/2, arithmetic mean (SD) [1, 12]: 3.86 (3.24) ^d h
t1/2, geometric mean (geometric CV %) [1, 12]: 3.03 (76.8) ^d h
decrease in AUCinf vs belumosudil alone [1, 13]: 33%
decrease in AUClast vs belumosudil alone [1, 13]: 33%
decrease in Cmax vs belumosudil alone [1, 13]: 35%
decrease in AUC0-24 vs belumosudil alone ([1]; coadministration of omeprazole): ~63%
decrease in Cmax (first dose) vs belumosudil alone ([1]; coadministration of omeprazole): ~73%
decrease in Cmax, second dose vs belumosudil alone ([1]; coadministration of omeprazole): ~57%
decrease in AUClast vs belumosudil alone [1, 14]: 94%
decrease in Cmax vs belumosudil alone [1, 14]: 93%
Structure (SMILES): O=C(O)COc1cccc(-c2nc(Nc3ccc4[nH]ncc4c3)c3ccccc3n2)c1 [KD025m2]

ROCK2 activity of metabolite (ROCK2): active
increase in AUClast vs belumosudil alone [1]: 150%
increase in Cmax vs belumosudil alone [1]: 129%
AUC0-24, arithmetic mean (SD) [1, 4]: 113 (81.2) ^q ng*h/mL
AUC0-24, geometric mean (geometric CV %) [1, 4]: 91.5 (76.3) ^q; ng*h/mL
AUCinf, arithmetic mean (SD) [1, 4]: 279 (122) ^t ng*h/mL
AUCinf, geometric mean (geometric CV %) [1, 4]: 265 (47.6) ^t; ng*h/mL
AUClast, arithmetic mean (SD) [1, 4]: 164 (100) ^q ng*h/mL
AUClast, geometric mean (geometric CV %) [1, 4]: 123 (114.0) ^q; ng*h/mL
t1/2, arithmetic mean (SD) [1, 4]: 2.31 (0.848) ^u h
t1/2, geometric mean (geometric CV %) [1, 4]: 2.21 (39.0) ^u; h
Cmax, arithmetic mean (SD) [1, 5]: 20.5 (11.4) ^j ng/mL
Cmax, geometric mean (geometric CV %) [1, 5]: 18.0 (54.6) ^j; ng/mL
Tmax, median (range) [1, 5]: 3.00 (1.00-5.00) h
Cmax, arithmetic mean (SD) [1, 6]: 21.2 (11.3) ^s ng/mL
Cmax, geometric mean (geometric CV %) [1, 6]: 18.9 (48.7) ^s; ng/mL
Tmax, median (range) [1, 6]: 16.50 (13.50-22.00) h
AUC0-24, arithmetic mean (SD) ([1]; 200 mg belumosudil BID alone): 187 (161) ^l ng*h/mL
AUC0-24, geometric mean (geometric CV %) ([1]; 200 mg belumosudil BID alone): 138 (91.3) ^l; ng*h/mL
AUCinf, arithmetic mean (SD) ([1]; 200 mg belumosudil BID alone): 287 (149) ^o ng*h/mL
AUCinf, geometric mean (geometric CV %) ([1]; 200 mg belumosudil BID alone): 259 (47.7) ^o; ng*h/mL
AUClast, arithmetic mean (SD) ([1]; 200 mg belumosudil BID alone): 205 (153) ^l ng*h/mL
AUClast, geometric mean (geometric CV %) ([1]; 200 mg belumosudil BID alone): 157 (93.0) ^l; ng*h/mL
t1/2, arithmetic mean (SD) ([1]; 200 mg belumosudil BID alone): 2.30 (0.757) ^p h
t1/2, geometric mean (geometric CV %) ([1]; 200 mg belumosudil BID alone): 2.19 (34.2) ^p; h
Cmax, arithmetic mean (SD) [1, 7]: 25.8 (12.6) ^n ng/mL
Cmax, geometric mean (geometric CV %) [1, 7]: 23.8 (39.6) ^n; ng/mL
Tmax, median (range) [1, 7]: 2.00 (1.00-6.00) h
Cmax, arithmetic mean (SD) [1, 8]: 26.1 (12.7) ^n ng/mL
Cmax, geometric mean (geometric CV %) [1, 8]: 23.6 (46.4) ^n; ng/mL
Tmax, median (range) [1, 8]: 13.98 (13.00-24.00) h
AUC0-24, arithmetic mean (SD) [1, 11]: 159 (61.2) ^c ng*h/mL
AUC0-24, geometric mean (geometric CV %) [1, 11]: 148 (41.9) ^c; ng*h/mL
AUCinf, arithmetic mean (SD) [1, 11]: 190 (37.7) ^i ng*h/mL
AUCinf, geometric mean (geometric CV %) [1, 11]: 187 (20.0) ^i; ng*h/mL
AUClast, arithmetic mean (SD) [1, 11]: 136 (55.5) ^c ng*h/mL
AUClast, geometric mean (geometric CV %) [1, 11]: 126 (41.7) ^c; ng*h/mL
Cmax, arithmetic mean (SD) [1, 11]: 55.2 (17.1) ^c ng/mL
Cmax, geometric mean (geometric CV %) [1, 11]: 52.5 (34.0) ^c; ng/mL
Tmax, median (range) [1, 11]: 2.08 (1.50-5.00) h
t1/2, arithmetic mean (SD) [1, 11]: 1.55 (0.325) ^j h
t1/2, geometric mean (geometric CV %) [1, 11]: 1.51 (21.4) ^j; h
AUC0-24, arithmetic mean (SD) [1, 12]: 81.3 (30.7) ^e ng*h/mL
AUC0-24, geometric mean (geometric CV %) [1, 12]: 75.6 (42.1) ^e; ng*h/mL
AUClast, arithmetic mean (SD) [1, 12]: 58.4 (18.7) ^e ng*h/mL
AUClast, geometric mean (geometric CV %) [1, 12]: 55.3 (36.4) ^e; ng*h/mL
Cmax, arithmetic mean (SD) [1, 12]: 24.9 (9.21) ^b ng/mL
Cmax, geometric mean (geometric CV %) [1, 12]: 23.2 (40.0) ^b; ng/mL
Tmax, median (range) [1, 12]: 3.00 (1.00-5.00) h
t1/2, arithmetic mean (SD) [1, 12]: 1.96 (0.931) ^f h
t1/2, geometric mean (geometric CV %) [1, 12]: 1.82 (38.5) ^f; h
metabolite levels [1, 14]: nonquantifiable in all but 1 subject
metabolite exposure relative to the parent [2]: < 5%
Structure (SMILES): NC(=O)COc1cccc(-c2nc(Nc3ccc4[nH]ncc4c3)c3ccccc3n2)c1 [KD025m1]
metabolite concentrations [1, 13]: nonquantifiable levels in all but 1 subject

Structure (SMILES): CC(C)NC(=O)COc1cccc(-c2nc(Nc3ccc4[nH]ncc4c3)c3ccccc3n2)c1 [Belumosudil mesylate, 2-{3-[4-(1H-indazol-5-ylamino)-2-quinazolinyl]phenoxy}-N-(propan-2-yl) acetamide methanesulfonate (1:1)]
solubility in DMF ([3]; DMF): slightly soluble
solubility in DMSO ([3]; DMSO): soluble
solubility in methanol ([3]; methanol): slightly soluble
solubility in water ([3]; water): practically insoluble

Structure (SMILES): C=CC(=O)N1CCC[C@@H](n2nc(-c3ccc(Oc4ccccc4)cc3)c3c(N)ncnc32)C1 [ibrutinib]
discontinuation rate because of treatment-emergent adverse events (TEAEs) (patients with cGVHD): 43%
